The record followed here is patent US6423519B1, “Compositions and methods for inhibiting fungal growth” (GPC Biotech Inc., priority 1998, dated 2002).

≈ marks a conversion by molar mass, not a printed value. Where two headings read alike, the source gives them in different places.

One assay concerns H460 Cell Line. As to the kind of experiment: Cytotoxicity of GGPTase inhibitors in human cells, H460 (Sulforhodamine B). The assay is classed as cell-based. As to the method: (§1) (A) Plate out cells at predetermined concentration in a volume of 150 μl.
(§2) (B) Allow cells to adhere to plate for twenty four hours
(§3) (C) Add compounds to cells at predetermined concentration (62.5 μg/mL down four-fold, 8 dilutions) n=2
(§4) (D) Cells are exposed to drug for 7 days for the IMR90 Cell Line, and a period of 3 days for the H460 Cell Line.
(E) 1. H460 Cells are fixed in TCA, rinsed, stained with Sulforhodamine B stain, and the stain is solubilized for a final OD read.

For a further assay, the target named is human GGTase (Homo sapiens, UniProt P53609). Put plainly: Human GGTase inhibition (Hu GG). The assay is classed as biochemical. From the text: As described below, a variety of different compounds were synthesized and tested for inhibitory activity against human and Candida GGTase. Exemplary synthesis schemes for generating prenyltransferase inhibitors useful in the methods and compositions of the present invention are shown in FIGS. 1-56. Tables 1-5 provide Structure-Activity relationship (SAR) data for several different classes of prenyltransferase inhibitors.

For the next assay, the system named is IMR90 Cell Line. Put plainly: Cytotoxicity of GGPTase inhibitors in human cells, IMR90 (MTT). It counts as cell-based. How it is done:
as §1, §2, §3, §4
2. IMR90 Cells have 3-{4,5-Dimethylthiazol-2-yl}-2,5-diphenyltetrazolium bromide (MTT) added to them for three hours prior to final read out. After the three hours, media and MTT are removed and MTT crystals are solubilized in 100% DMSO for final OD read.

The target in another assay is T1, C. albicans GGPTase (Candida albicans, UniProt Q8J224+Q9Y764).
T1 sequence (Q9Y764 1-398): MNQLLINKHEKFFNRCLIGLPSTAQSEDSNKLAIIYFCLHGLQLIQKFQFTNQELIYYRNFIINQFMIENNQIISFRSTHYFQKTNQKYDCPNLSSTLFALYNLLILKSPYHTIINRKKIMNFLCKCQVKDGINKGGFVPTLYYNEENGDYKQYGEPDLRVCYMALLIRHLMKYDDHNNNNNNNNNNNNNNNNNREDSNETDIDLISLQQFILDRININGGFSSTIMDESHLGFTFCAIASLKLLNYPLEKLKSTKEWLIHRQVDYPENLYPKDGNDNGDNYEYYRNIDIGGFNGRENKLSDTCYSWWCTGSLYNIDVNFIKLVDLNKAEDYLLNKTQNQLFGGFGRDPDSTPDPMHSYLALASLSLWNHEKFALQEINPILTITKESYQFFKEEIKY
T1 sequence (Q8J224 1-306): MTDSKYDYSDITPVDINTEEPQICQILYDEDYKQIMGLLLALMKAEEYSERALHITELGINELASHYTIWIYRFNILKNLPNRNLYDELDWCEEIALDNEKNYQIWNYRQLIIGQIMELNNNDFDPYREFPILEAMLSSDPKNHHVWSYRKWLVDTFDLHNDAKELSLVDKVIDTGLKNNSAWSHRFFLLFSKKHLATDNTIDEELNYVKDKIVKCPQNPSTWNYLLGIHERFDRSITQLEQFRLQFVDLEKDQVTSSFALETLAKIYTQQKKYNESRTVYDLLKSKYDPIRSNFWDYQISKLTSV
Put plainly: biochemical. As to the method:
Plate test compounds (10 μL per well) at predetermined concentration in 50% DMSO. For background control (blank) and reaction control (negative), add 10 μL of 200 μM GGPP and 10 μL 50% DMSO, respectively. Prepare assay buffer: 50 mM Tris, pH7.5, 20 mM KCL, 5 mM MgCl2, 5 μM ZnCl2, 0.5 mM Zw(3-14), 2 mM DTT and 0.1 mg/mL BSA.
Add 20 μL of C. albicans GGPTase and ^3H-GGPP in assay buffer to test compound. Preincubate enzyme and ^3H-GGPP with test compound for 15 minutes at room temperature. Add 20 μL C. albicans Rho in assay buffer. Incubate for 30 minutes at room temperature. Final assay conditions are 2 nM C. albicans GGPTase, 250 nM ^3H-GGPP and 250 nM C. albicans Rho.
Add 100 μL 15 mM GGPP, 50 mM Tris, pH7.0 and 2% BSA to quench reaction. Transfer reaction to Nickel chelate FlashPlate. Allow his-tagged C. albcians Rho to capture onto plate. Rinse plate 1× with 200 μL 20 mM Tris, pH7.0. Read in TOPCOUNT.

The test system of another assay is MycCaRHO1. Put plainly: Prenylation state / localisation of newly synthesized MycCaRHO1 (fractionation, Western blot). To be noted: 3 μg/ml, strain DIY-BL2-058, versus mock (DMSO) treated cells. The assay is classed as cell-based, C. albicans. As to the method: To look at the effect of GGPTase I inhibitors in vivo a recombinant C. albicans strain engineered to express a Myc tagged CaRHO1 under the control of the C. albicans phosphoenolpyruvate carboxykinase 1 (PCK1) promoter is used. This promoter is repressed by glucose and derepressed by gluconeogenic carbon sources such as succinate. It should also be possible to be look at the endogenous substrates of the GGPTase I. Cells are treated with a sublethal dose of compound for a period of time which has been established from a kill curve analysis in the appropriate media. After the treatment time, cells are harvested and whole cell extracts (WCE) made, these extracts are then resolved by high speed centrifugation into cytosolic and membrane fractions. Visualisation of the localisation of the MycCaRHO1 is achieved by sodium dodecyl sulfate-polyacrylamide gel electrophoresis (SDS-PAGE) and Western blotting. […]
Cells of strain DIY-BL2-058 were grown overnight in YNB supplemented with 1 μg/ml histidine, 2 μg/ml methionine, 2 μg/ml tryptophan, 200 μg/ml glutamine and 2% glucose at 220 rpm at 31° C. The cell number was then determined, cells were pelleted by centrifugation and resuspended in fresh media at a density of 1×10^7 cells/ml and incubated as above. […]
Fractions were thawed on ice. The protein concentration was determined using the standard Bradford method for the WCEs and cytosolic fraction. […]
A general note: A western blot detects proteins with antibodies after separation by electrophoresis.

The subject of a further assay is C. albicans. Put plainly: Determination of minimum fungicidal concentration (MFC). It counts as cell-based. To be noted: Candida albicans. How it is done: After the required time course for the MIC determination, the minimum fungicidal concentration can then be determined by plating out the entire contents of the well of the microtitre plates onto YPD or Sabourand plates. These plates are then incubated at 35° C. for 24-48 hrs. The MFC corresponds to the concentration of compound where no cellular growth is observed on the plate. For compound 99a, and MFC was calculated of 2 μg/ml.

Setting [1] is: NCI-H460, 72 h, read-out: IC50 (nM) H460.
The mark [2] stands for this setting: Table 3 Piperidine Analogs, read-out: IC50 (nM) Hu GG.
Setting [3] is: IMR-90, 168 h, read-out: IC50 (nM) IMR90.
Where [4] appears, read: Table 3 Piperidine Analogs, read-out: IC50 (nM) Ca GG.

For orientation: IC50 means the concentration needed to halve the response being measured.

`C[C@H](N)C(=O)N[C@@H](CS)C(=O)N1CCC(C(=O)NCc2ccncc2)(c2ccccc2)CC1` [Compound 96a]: the IC50 in the assay on H460 Cell Line (setting [1]), on human GGTase (setting [2]), in the assay on IMR90 Cell Line (setting [3]) and at C. albicans GGPTase (setting [4]) was > 1000 nM in each case.

As to `C[C@H](N)C(=O)N[C@@H](C)C(=O)N[C@@H](CS)C(=O)N1CCC(C(=O)NCc2ccncc2)(c2ccccc2)CC1` [Compound 96b], the IC50 in the assay with H460 Cell Line (setting [1]) is > 1000 nM; at human GGTase (setting [2]) it was > 1000 nM; with IMR90 Cell Line (setting [3]), > 1000 nM; on C. albicans GGPTase (setting [4]), < 1000 nM.

For `CC(C)C[C@H](NC(=O)C1(c2ccccc2)CCN(C(=O)[C@@H](N)CS)CC1)C(=O)N[C@@H](C)C(=O)O` [Compound 99a], the IC50 in the assay on H460 Cell Line (NCI-H460, read-out: Human cell IC50 (nM) H460) is > 10000 nM; at human GGTase (setting [2]) it was > 500 nM; at human GGTase (Table 5, read-out: IC50 (nM) Human), > 500 nM; in the assay with IMR90 Cell Line (IMR-90, read-out: Human cell IC50 (nM) IMR90), > 10000 nM; on C. albicans GGPTase (setting [4]) it was < 50 nM; on C. albicans GGPTase (Table 5, read-out: IC50 (nM) Candida), < 50 nM. In the assay with MycCaRHO1, the “abundance of MycCaRHO1 in the cytosolic fraction (FIG. 57)” value is recorded as “increases the abundance of MycCaRHO1 in the cytosolic fraction”. In addition, the MFC with C. albicans (read-out: Candida MFC (g/mL)) and in the assay on C. albicans (read-out: MFC) was 2 µg/mL (≈ 4.06 µM) each time.
